US20120264735A1 (priority 2009, published 2012)

Target: T1, c-Met kinase (recombinant c-Met) (Homo sapiens, UniProt P08581)
T1 construct: 0.27 nM recombinant c-Met
Assay: In vitro kinase assay I (homogeneous time-resolved fluorescence tyrosine kinase assay)
Assay type: biochemical
Summary of the method: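 Biotinylated peptide (0.5 μM) phosphorylated by 0.2 nM recombinant c-Met with 50 μM MgATP, 60 min at room temperature, pH 7.4, 5% DMSO. EDTA stop; HTRF read with Eu-anti-phosphotyrosine antibody and streptavidin-APC. IC50 from 4-parameter logistic fit.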

T1 sequence (P08581 25-1390): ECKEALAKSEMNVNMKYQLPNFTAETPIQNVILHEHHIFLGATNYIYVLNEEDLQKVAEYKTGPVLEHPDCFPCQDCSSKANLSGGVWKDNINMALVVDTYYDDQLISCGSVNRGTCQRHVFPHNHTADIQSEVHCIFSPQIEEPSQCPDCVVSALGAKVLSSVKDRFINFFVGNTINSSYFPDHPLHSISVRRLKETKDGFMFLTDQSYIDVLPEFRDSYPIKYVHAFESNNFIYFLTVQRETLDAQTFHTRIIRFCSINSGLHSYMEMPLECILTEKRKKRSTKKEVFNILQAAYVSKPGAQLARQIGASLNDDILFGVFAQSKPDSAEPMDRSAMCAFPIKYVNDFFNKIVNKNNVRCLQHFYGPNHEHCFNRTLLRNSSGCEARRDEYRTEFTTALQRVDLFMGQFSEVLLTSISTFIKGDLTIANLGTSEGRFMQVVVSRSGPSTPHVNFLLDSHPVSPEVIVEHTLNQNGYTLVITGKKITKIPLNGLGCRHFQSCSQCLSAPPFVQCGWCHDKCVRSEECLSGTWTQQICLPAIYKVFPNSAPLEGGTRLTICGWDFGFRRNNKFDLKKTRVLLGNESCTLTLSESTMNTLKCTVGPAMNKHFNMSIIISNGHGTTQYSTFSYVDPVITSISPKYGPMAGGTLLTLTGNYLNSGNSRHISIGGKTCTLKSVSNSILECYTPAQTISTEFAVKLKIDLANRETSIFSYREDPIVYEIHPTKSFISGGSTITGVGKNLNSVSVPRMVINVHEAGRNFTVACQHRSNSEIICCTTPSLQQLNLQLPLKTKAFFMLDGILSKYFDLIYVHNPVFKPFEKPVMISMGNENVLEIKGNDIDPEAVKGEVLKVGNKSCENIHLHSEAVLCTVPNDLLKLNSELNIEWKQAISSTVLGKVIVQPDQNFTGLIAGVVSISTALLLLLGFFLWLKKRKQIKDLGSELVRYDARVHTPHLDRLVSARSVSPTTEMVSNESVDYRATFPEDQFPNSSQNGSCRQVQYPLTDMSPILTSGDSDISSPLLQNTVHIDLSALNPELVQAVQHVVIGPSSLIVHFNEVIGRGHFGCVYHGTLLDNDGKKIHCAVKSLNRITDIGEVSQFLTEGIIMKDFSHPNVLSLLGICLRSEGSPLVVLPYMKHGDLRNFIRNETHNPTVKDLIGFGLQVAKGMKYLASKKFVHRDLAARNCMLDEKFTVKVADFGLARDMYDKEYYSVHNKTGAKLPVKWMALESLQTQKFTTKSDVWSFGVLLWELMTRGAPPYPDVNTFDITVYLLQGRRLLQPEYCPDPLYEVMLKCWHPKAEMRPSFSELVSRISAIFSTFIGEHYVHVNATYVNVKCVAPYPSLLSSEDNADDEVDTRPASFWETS

Cn1cc(-n2ccc(=O)c(Cc3cccc(-c4ncc(OCc5ccccc5)cn4)c3)n2)cn1 [Example 67, 3-{3-[5-(benzyloxy)pyrimidin-2-yl]benzyl}-1-(1-methyl-1H-pyrazol-4-yl)pyridazin-4(1H)-one]
IC50: < 100 nM

CC(C)COC(=O)Nc1cccc(Cc2nn(-c3ccc(Br)cc3)ccc2=O)c1 [Example 68, 2-methylpropyl (3-{[1-(4-bromophenyl)-4-oxo-1,4-dihydropyridazin-3-yl]methyl}phenyl)carbamate]
IC50: < 100 nM

CC(C)COC(=O)Nc1cccc(Cc2nn(-c3cccc(Br)c3)ccc2=O)c1 [Example 69, 2-methylpropyl (3-{[1-(3-bromophenyl)-4-oxo-1,4-dihydropyridazin-3-yl]methyl}phenyl)carbamate]
IC50: < 100 nM

CCn1cc(-n2ccc(=O)c(Cc3cccc(NC(=O)OCCOC)c3)n2)cn1 [Example 70, 2-methoxyethyl (3-{[1-(1-ethyl-1H-pyrazol-4-yl)-4-oxo-1,4-dihydropyridazin-3-yl]methyl}phenyl)carbamate]
IC50: < 100 nM

CCn1cc(-n2ccc(=O)c(Cc3cccc(-c4ncc(OCc5ccccc5)cn4)c3)n2)cn1 [Example 71, 3-{3-[5-(benzyloxy)pyrimidin-2-yl]benzyl}-1-(1-ethyl-1H-pyrazol-4-yl)pyridazin-4(1H)-one]
IC50: < 100 nM

CCOc1cnc(-c2cccc(Cc3nn(-c4cccc(C#N)c4)ccc3=O)c2)nc1 [Example 72, 3-[3-[3-(5-ethoxypyrimidin-2-yl)benzyl]-4-oxopyridazin-1(4H)-yl]benzonitrile]
IC50: < 100 nM

COCCOC(=O)Nc1cccc(Cc2nn(-c3cc(F)cc(C#N)c3)ccc2=O)c1 [Example 73, 2-methoxyethyl (3-{[1-(3-cyano-5-fluorophenyl)-4-oxo-1,4-dihydropyridazin-3-yl]methyl}phenyl)carbamate]
IC50: < 100 nM

Cn1cc(-n2ccc(=O)c(Cc3ccc4cnccc4c3)n2)cn1 [Example 74, 3-(isoquinolin-6-ylmethyl)-1-(1-methyl-1H-pyrazol-4-yl)pyridazin-4(1H)-one]
IC50: 100 to 1000 nM

Cc1nnc(-c2cccc(Cc3nn(-c4cnn(C)c4)ccc3=O)c2)s1 [Example 75, 1-(1-methyl-1H-pyrazol-4-yl)-3-[3-(5-methyl-1,3,4-thiadiazol-2-yl)benzyl]pyridazin-4(1H)-one]
IC50: 1000 to 3000 nM

CCCCn1cnc(-c2cccc(Cc3nn(-c4cnn(C)c4)ccc3=O)c2)n1 [Example 76, 3-[3-(1-butyl-1H-1,2,4-triazol-3-yl)benzyl]-1-(1-methyl-1H-pyrazol-4-yl)pyridazin-4(1H)-one]
IC50: < 100 nM

COCCCn1cnc(-c2cccc(Cc3nn(-c4cnn(C)c4)ccc3=O)c2)n1 [Example 77, 3-{3-[1-(3-methoxypropyl)-1H-1,2,4-triazol-3-yl]benzyl}-1-(1-methyl-1H-pyrazol-4-yl)pyridazin-4(1H)-one]
IC50: < 100 nM

CC(C)CCn1cnc(-c2cccc(Cc3nn(-c4cnn(C)c4)ccc3=O)c2)n1 [Example 78, 3-{3-[1-(3-methylbutyl)-1H-1,2,4-triazol-3-yl]benzyl}-1-(1-methyl-1H-pyrazol-4-yl)pyridazin-4(1H)-one]
IC50: < 100 nM

CCCn1cnc(-c2cccc(Cc3nn(-c4ccc(F)c(F)c4)ccc3=O)c2)n1 [Example 80, 1-(3,4-difluorophenyl)-3-[3-(1-propyl-1H-1,2,4-triazol-3-yl)benzyl]pyridazin-4(1H)-one]
IC50: < 100 nM

CCCn1cnc(-c2cccc(Cc3nn(-c4cc(F)cc(C#N)c4)ccc3=O)c2)n1 [Example 81, 3-fluoro-5-{4-oxo-3-[3-(1-propyl-1H-1,2,4-triazol-3-yl)benzyl]pyridazin-1(4H)-yl}benzonitrile]
IC50: < 100 nM

CCn1cnc(-c2cccc(Cc3nn(-c4ccc(F)c(F)c4)ccc3=O)c2)n1 [Example 82, 1-(3,4-difluorophenyl)-3-[3-(1-ethyl-1H-1,2,4-triazol-3-yl)benzyl]pyridazin-4(1H)-one]
IC50: < 100 nM

CCn1cnc(-c2cccc(Cc3nn(-c4cc(F)cc(C#N)c4)ccc3=O)c2)n1 [Example 83, 3-{3-[3-(1-ethyl-1H-1,2,4-triazol-3-yl)benzyl]-4-oxopyridazin-1(4H)-yl}-5-fluorobenzonitrile]
IC50: < 100 nM

CCn1cnc(-c2cccc(Cc3nn(-c4cccc(C#N)c4)ccc3=O)c2)n1 [Example 84, 3-{3-[3-(1-Ethyl-1H-1,2,4-triazol-3-yl)benzyl]-4-oxopyridazin-1(4H)-yl}benzonitrile]
IC50: < 100 nM

CCCn1cnc(-c2cccc(Cc3nn(-c4cccc(C#N)c4)ccc3=O)c2)n1 [Example 85, 3-{4-oxo-3-[3-(1-propyl-1H-1,2,4-triazol-3-yl)benzyl]pyridazin-1(4H)-yl}benzonitrile]
IC50: < 100 nM

CCn1cc(-n2ccc(=O)c(Cc3cccc(-c4ncn(CC)n4)c3)n2)cn1 [Example 86, 1-(1-ethyl-1H-pyrazol-4-yl)-3-[3-(1-ethyl-1H-1,2,4-triazol-3-yl)benzyl]pyridazin-4(1H)-one]
IC50: < 100 nM

CCCn1cnc(-c2cccc(Cc3nn(-c4cnn(CC)c4)ccc3=O)c2)n1 [Example 87, 1-(1-ethyl-1H-pyrazol-4-yl)-3-[3-(1-propyl-1H-1,2,4-triazol-3-yl)benzyl]pyridazin-4(1H)-one]
IC50: < 100 nM

CCn1cnc(-c2cccc(Cc3nn(-c4cnn(CCOCc5ccccc5)c4)ccc3=O)c2)n1 [Example 88, 1-{1-[2-(benzyloxy)ethyl]-1H-pyrazol-4-yl}-3-[3-(1-ethyl-1H-1,2,4-triazol-3-yl)benzyl]pyridazin-4(1H)-one]
IC50: 100 to 1000 nM

CCCn1cnc(-c2cccc(Cc3nn(-c4cnn(CCOCc5ccccc5)c4)ccc3=O)c2)n1 [Example 89, 1-{1-[2-(benzyloxy)ethyl]-1H-pyrazol-4-yl}-3-[3-(1-propyl-1H-1,2,4-triazol-3-yl)benzyl]pyridazin-4(1H)-one]
IC50: 100 to 1000 nM

CC(C)COC(=O)Nc1cccc(Cc2nn(-c3cnn(C4CCOCC4)c3)ccc2=O)c1 [Example 90, 2-methylpropyl [3-({4-oxo-1-[1-(tetrahydro-2H-pyran-4-yl)-1H-pyrazol-4-yl]-1,4-dihydropyridazin-3-yl}methyl)phenyl]carbamate]
IC50: 100 to 1000 nM

CCOC(=O)Nc1cccc(Cc2nn(-c3cnn(C4CCOCC4)c3)ccc2=O)c1 [Example 91, ethyl [3-({4-oxo-1-[1-(tetrahydro-2H-pyran-4-yl)-1H-pyrazol-4-yl]-1,4-dihydropyridazin-3-yl}methyl)phenyl]carbamate]
IC50: 100 to 1000 nM

CCOC(=O)Nc1cccc(Cc2nn(-c3cnn(CC(C)C)c3)ccc2=O)c1 [Example 92, ethyl [3-({1-[1-(2-methylpropyl)-1H-pyrazol-4-yl]-4-oxo-1,4-dihydropyridazin-3-yl}methyl)phenyl]carbamate]
IC50: 100 to 1000 nM

CC(C)COC(=O)Nc1cccc(Cc2nn(-c3cnn(CC(F)(F)F)c3)ccc2=O)c1 [Example 93, 2-methylpropyl [3-({4-oxo-1-[1-(2,2,2-trifluoroethyl)-1H-pyrazol-4-yl]-1,4-dihydropyridazin-3-yl}methyl)phenyl]carbamate]
IC50: < 100 nM

CC(C)COC(=O)Nc1cccc(Cc2nn(-c3cnn(CC(C)C)c3)ccc2=O)c1 [Example 94, 2-methylpropyl [3-({1-[1-(2-methylpropyl)-1H-pyrazol-4-yl]-4-oxo-1,4-dihydropyridazin-3-yl}methyl)phenyl]carbamate]
IC50: 100 to 1000 nM

COc1cnc(-c2cccc(Cc3nn(-c4cnn(CC(C)C)c4)ccc3=O)c2)nc1 [Example 95, 3-[3-(5-methoxypyrimidin-2-yl)benzyl]-1-[1-(2-methylpropyl)-1H-pyrazol-4-yl]pyridazin-4(1H)-one]
IC50: < 100 nM

CC(C)Cn1cc(-n2ccc(=O)c(Cc3cccc(NC(=O)OCCN4CCOCC4)c3)n2)cn1 [Example 96, 2-morpholin-4-ylethyl [3-({1-[1-(2-methylpropyl)-1H-pyrazol-4-yl]-4-oxo-1,4-dihydropyridazin-3-yl}methyl)phenyl]carbamate]
IC50: 100 to 1000 nM

CCOC(=O)Nc1cccc(Cc2nn(-c3cnn(CC4CCOCC4)c3)ccc2=O)c1 [Example 100, ethyl [3-({4-oxo-1-[1-(tetrahydro-2H-pyran-4-ylmethyl)-1H-pyrazol-4-yl]-1,4-dihydropyridazin-3-yl}methyl)phenyl]carbamate]
IC50: 100 to 1000 nM

CCCOC(=O)Nc1cccc(Cc2nn(-c3cnn(CC4CCOCC4)c3)ccc2=O)c1 [Example 101, propyl [3-({4-oxo-1-[1-(tetrahydro-2H-pyran-4-ylmethyl)-1H-pyrazol-4-yl]-1,4-dihydropyridazin-3-yl}methyl)phenyl]carbamate]
IC50: 100 to 1000 nM

CC(C)COC(=O)Nc1cccc(Cc2nn(-c3cnn(CC4CCOCC4)c3)ccc2=O)c1 [Example 102, 2-methylpropyl [3-({4-oxo-1-[1-(tetrahydro-2H-pyran-4-ylmethyl)-1H-pyrazol-4-yl]-1,4-dihydropyridazin-3-yl}methyl)phenyl]carbamate]
IC50: 100 to 1000 nM

CCOC(=O)Nc1cccc(Cc2nn(-c3cnn(C(C)C)c3)ccc2=O)c1 [Example 103, ethyl [3-({1-[1-(1-methylethyl)-1H-pyrazol-4-yl]-4-oxo-1,4-dihydropyridazin-3-yl}methyl)phenyl]carbamate]
IC50: < 100 nM

CCCOC(=O)Nc1cccc(Cc2nn(-c3cnn(C(C)C)c3)ccc2=O)c1 [Example 104, propyl [3-({1-[1-(1-methylethyl)-1H-pyrazol-4-yl]-4-oxo-1,4-dihydropyridazin-3-yl}methyl)phenyl]carbamate]
IC50: < 100 nM

CC(C)COC(=O)Nc1cccc(Cc2nn(-c3cnn(C(C)C)c3)ccc2=O)c1 [Example 105, 2-methylpropyl [3-({1-[1-(1-methylethyl)-1H-pyrazol-4-yl]-4-oxo-1,4-dihydropyridazin-3-yl}methyl)phenyl]carbamate]
IC50: < 100 nM

CCOC(=O)Nc1cccc(Cc2nn(-c3cnn(CCOC)c3)ccc2=O)c1 [Example 106, ethyl [3-({1-[1-(2-methoxyethyl)-1H-pyrazol-4-yl]-4-oxo-1,4-dihydropyridazin-3-yl}methyl)phenyl]carbamate]
IC50: 100 to 1000 nM
